In patent US9320278B2, “Methods of controlling insects” (Syngenta Participations AG, priority 2012, dated 2016):

Test system: Anthonomus grandis (Cotton Boll Weevil)
Assay: Anthonomus grandis (Cotton Boll Weevil) test on treated cotton plants, mortality
Assay type: in vivo
Experimental: Anthonomus grandis (Cotton Boll Weevil)
Cotton plants are treated (100 mL spray volume) and 10 adult weevils are added to each plant (2 replicates per concentration). 5 days after infestation the mortality is assessed.
Compounds are tested according to the above method.

[1] = comparative example, application rate 0.8 ppm, Anthonomus grandis (Cotton boll weevil)
[2] = comparative example, application rate 3 ppm, Anthonomus grandis (Cotton boll weevil)
[3] = comparative example, application rate 12.5 ppm, Anthonomus grandis (Cotton boll weevil)
[4] = application rate 0.2 ppm, treated cotton plants, 10 adult weevils per plant, mortality 5 days after infestation
[5] = application rate 12.5 ppm, treated cotton plants, 10 adult weevils per plant, mortality 5 days after infestation
[6] = application rate 50 ppm, treated cotton plants, 10 adult weevils per plant, mortality 5 days after infestation
[7] = application rate 0.8 ppm, treated cotton plants, 10 adult weevils per plant, mortality 5 days after infestation
[8] = application rate 3 ppm, treated cotton plants, 10 adult weevils per plant, mortality 5 days after infestation
[9] = application rate 0.01 ppm, treated cotton plants, 10 adult weevils per plant, mortality 5 days after infestation
[10] = application rate 0.05 ppm, treated cotton plants, 10 adult weevils per plant, mortality 5 days after infestation

SMILES	Control/% [1] [%]	Control/% [2] [%]	Control/% [3] [%]	Control/% [4] [%]	Control/% [5] [%]	Control/% [6] [%]	Control/% [7] [%]	Control/% [8] [%]	Control/% [9] [%]	Control/% [10] [%]
Cc1cc(C2=NOC(c3cc(Cl)cc(Cl)c3)(C(F)(F)F)C2)ccc1C(=O)N[C@@H]1CON(CC(F)(F)F)C1=O (stereo partly drawn) [Compound of the invention]	100	100	100							
Cc1cc(C2=NOC(c3cc(Cl)cc(Cl)c3)(C(F)(F)F)C2)ccc1C(=O)NC1CON(CC(F)(F)F)C1=O (mixture of isomers) [Compound A21]				70	100	100				
CCN1OCC(NC(=O)c2ccc(C3=NOC(c4cc(Cl)c(F)c(Cl)c4)(C(F)(F)F)C3)cc2C)C1=O (mixture of isomers) [Compound A5]				40	100	100	40	95		
CCN1OC[C@@H](NC(=O)c2ccc(C3=NO[C@@](c4cc(Cl)cc(C(F)(F)F)c4)(C(F)(F)F)C3)c3ccccc23)C1=O [Compound A18]				0	35	100	40	30		
Cc1cc(C2=NOC(c3cc(Cl)cc(Cl)c3)(C(F)(F)F)C2)ccc1C(=O)N[C@@H]1CON(Cc2ccccc2)C1=O (stereo partly drawn) [Reference compound, reference compound]	10	30	30							
Cc1cc(C2=NOC(c3cc(Cl)cc(Cl)c3)(C(F)(F)F)C2)ccc1C(=O)NC1CON(CC(F)(F)F)C1=O (mixture of isomers) [Compound A8]				70			100	100	20	35
CCN1OC[C@@H](NC(=O)c2ccc(C3=NO[C@@](c4cc(Cl)c(F)c(Cl)c4)(C(F)(F)F)C3)cc2C)C1=O [Compound A20]				15	100	100	60	100		
CCN1OC[C@@H](NC(=O)c2ccc(C3=NO[C@@](c4cc(Cl)cc(Cl)c4)(C(F)(F)F)C3)cc2C)C1=O [Compound A17]				20	100	100	50	100		
Cc1cc(C2=NOC(c3cc(Cl)cc(Cl)c3)(C(F)(F)F)C2)ccc1C(=O)NC1CON(CC(F)F)C1=O (mixture of isomers) [Compound A6]				95			100	100	35	50
Cc1cc(C2=NOC(c3cc(Cl)cc(Cl)c3)(C(F)(F)F)C2)ccc1C(=O)NC1CON(C)C1=O (mixture of isomers) [Compound A2]				45	100	100	80	100		
Cc1cc(C2=NO[C@@](c3cc(Cl)cc(Cl)c3)(C(F)(F)F)C2)ccc1C(=O)N[C@H]1CON(CC(F)(F)F)C1=O [Compound A3]				60	100	100	60	100		
Cc1cc(C2=NO[C@@](c3cc(Cl)cc(Cl)c3)(C(F)(F)F)C2)ccc1C(=O)N[C@@H]1CON(CC(F)(F)F)C1=O [Compound A16]				100			100	100	0	55
CCN1OCC(NC(=O)c2ccc(C3=NOC(c4cc(Cl)cc(Cl)c4)(C(F)(F)F)C3)cc2C)C1=O (mixture of isomers) [Compound A9]				25	100	100	15	75		
Cc1cc(C2=NOC(c3cc(Cl)c(Cl)c(Cl)c3)(C(F)(F)F)C2)ccc1C(=O)NC1CON(CC(F)(F)F)C1=O (mixture of isomers) [Compound A1]				45	100	95	90	100		
CCN1OC[C@@H](NC(=O)c2ccc(C3=NO[C@@](c4cc(Cl)c(F)c(Cl)c4)(C(F)(F)F)C3)cc2Cl)C1=O [Compound A19]				60	95	100	30	85		
